This is an account of results in patent publication US4174451A, “2-Furyl-(3,4-dimethyl-2-pyridyl)-carbinol” (Laboratorios Made, S.A., priority 1977, dated 1979).

The term LD50 denotes the dose expected to kill half of the subjects tested.

In data set [1] the test system is Swiss I.C.R. albino mice. Briefly: Chemical analgesia, acetic acid writhing technique. The following applies: for No. of writhes x ± S.E.M.: 30 minutes before 0.25 ml of 1% acetic acid i.p., counted twenty minutes later, batches of 10 mice, control 78.4 ± 6.7. It counts as in vivo. As for the experimental part: The analgesic effect was studied in Swiss I.C.R. albino mice, by the acetic acid writhing technique. Batches of 10 mice were made.
The products under study were administered intraperitoneally, and 30 minutes later 0.25 ml of 1% acetic acid was injected intraperitoneally. A batch of control animals received only the acetic acid. Twenty minutes following administration of the acetic acid, the number of writhes in each mouse was counted.
A general note: An intraperitoneal irritant provokes the stretching counted in writhing tests.

The subject of data set [2] is Swiss I.C.R. albino mice. Briefly: Thermal analgesia, 55° C. Hot Plate technique. It counts as in vivo. The following applies: for Jumping time in sec. x ± S.E.M.: 30 minutes after administration, batches of 10 mice, mean ± S.E.M., control 63.7 ± 4.54; for Signif. of differences vs Control (jumping time): p value. As for the experimental part: The thermal analgesic effect was studied in Swiss I.C.R. albino mice. The 55° C. Hot Plate technique was used. Batches of 10 mice were used.
The products under study were administered intraperitoneally, and after 30 minutes the mice were placed on the hot plate, count being made of the time, in seconds, it took them to jump. Batches of control animals were injected only with distilled water.

Data set [3] is described as follows: Acute toxicity in mice (LD50, Litchfield-Wilcoxon test). Also on record: species or system Swiss I.C.R. albino mice. The following applies: mouse, in vivo, ip; intraperitoneal, deaths counted 48 hours after treatment, both sexes, fasted 24 hours. As for the experimental part:
An acute toxicity study was made on Swiss I.C.R. albino mice of both sexes of 30± 2 g in weight, kept without food for 24 hours prior to the experiment. Ambient temperature and relative humidity were kept constant. The products were administered intraperitoneally, the number of deaths being counted 48 hours after treatment. The lethal dose (LD50) was calculated by the Litchfield-Wilcoxon test.

The mark [4] stands for this setting: p value, 30 mg/kg intraperitoneal.
Setting [5] is: in words, compared with dextropropoxyphene.

Consider `CCC(=O)O[C@](Cc1ccccc1)(c1ccccc1)[C@H](C)CN(C)C` [Dextropropoxyphene, dextropropoxyphene, reference compound], for which the “No. of writhes x ± S.E.M.” value in data set [1] (30 mg/kg intraperitoneal) turned out to be 8.4 ± 4.04. Also, the “Signif. of differences vs Control (writhes)” value in data set [1] (setting [4]) is < 0.00005. In addition, in data set [2] (30 mg/kg intraperitoneal), the “Jumping time in sec. x ± S.E.M.” value turned out to be 116.8 ± 12.43 s and the “Signif. of differences vs Control (jumping time)” value is given as < 0.01.
In data set [3], `Cc1ccnc(C(O)c2ccco2)c1C` (stereo not shown) [Product I, 2-furyl-(3,4-dimethyl-2-pyridyl)-carbinol] yielded a 50% lethal dose (LD50) at 48 h of 309 mg/kg. Moreover, in data set [1] (30 mg/kg intraperitoneal), the “No. of writhes x ± S.E.M.” value is reported as 53 ± 6.07. Moreover, in data set [1] (setting [5]), the chemical analgesic action entry is “chemical analgesic action, but of lesser intensity than that of dextropropoxyphene”. Also, the “Signif. of differences vs Control (writhes)” value in data set [1] (setting [4]) is listed as < 0.02. For the same compound, in data set [1] (p value, 30 mg/kg intraperitoneal, vs dextropropoxyphene 30 mg/kg), the “Signif. of differences vs Dextroprop. (writhes)” value was < 0.00005. Further, in data set [2] (30 mg/kg intraperitoneal), the “Jumping time in sec. x ± S.E.M.” value stood at 110.1 ± 13.28 s and the “Signif. of differences vs Control (jumping time)” value was < 0.005. Also, the “Signif. of differences vs Dextroprop. (jumping time)” value in data set [2] (30 mg/kg intraperitoneal, vs dextropropoxyphene 30 mg/kg, N.S.) was “N.S”. The thermal analgesic action result in data set [2] (setting [5]) is listed as “same thermal analgesic action as the dextropropoxyphene”.
